Results as given in patent publication US5776919A, “Potentiators of antimicrobial activity” (priority 1996, dated 1998).
In brackets after ≈: the same amount, converted by molar mass. Several values for one entry are separate records, joined by “and”; a condition that tells them apart may be missing. Equal values may be shown once. Read-outs that look alike come from different tables or passages of the source.

How the values were obtained:
Format in all cases: cell-based
[1] = tested on: methicillin-resistant Staphylococcus aureus (ATCC 33591); assay: MBC determination
Procedure: (§1) After 24 hours of incubation, the colonies were counted.

[2] = tested on: Pseudomonas aeruginosa (ATCC 10145); assay: MBC determination
Procedure: as §1

[3] = tested on: Escherichia coli (ATCC 10536); assay: MBC determination
Procedure: as §1

[4] = tested on: methicillin-resistant Staphylococcus aureus (ATCC 33591); assay: MIC determination by broth dilution
Procedure: (§2) The MICs were determined by the broth dilution method. […] The assays were performed in duplicate.

[5] = tested on: Pseudomonas aeruginosa (ATCC 10145); assay: MIC determination by broth dilution
Procedure: as §2

[6] = tested on: Escherichia coli (ATCC 10536); assay: MIC determination by broth dilution
Procedure: as §2

[7] = tested on: Candida albicans (ATCC 10231); assay: MBC determination
Procedure: as §1

[8] = tested on: Candida albicans (ATCC 10231); assay: MIC determination by broth dilution
Procedure: as §2

[9] = compound alone, MRSA ATCC 33591
[10] = compound alone, P. aeruginosa (ATCC 10536 [sic])
[11] = compound alone, E. coli ATCC 10536
[12] = compound alone, MRSA ATCC 33591, 2 days at 37° C.
[13] = compound alone, P. aeruginosa (ATCC 10536 [sic]), 2 days at 37° C.
[14] = compound alone, E. coli ATCC 10536, 2 days at 37° C.
[15] = Staphylococcus aureus, ATCC 33591 / MRSA, 48 h, compound alone, MRSA ATCC 33591, 2 days at 37° C., read-out: MIC
[16] = compound alone, C. albicans ATCC 10231
[17] = compound alone, C. albicans ATCC 10231, 2 days at 37° C.

Compound | MBC [2, 10] | MBC [3, 11] | MIC [4, 12] | MIC [5, 13] | MIC [6, 14] | MIC [4, 15] | other results
CCC/C=C/C=O [2-Hexenal, t-2-hexenal] | 400 µg/mL (≈ 4.08 mM) | 400 µg/mL (≈ 4.08 mM) | 400 µg/mL (≈ 4.08 mM) | 200 µg/mL (≈ 2.04 mM) | 200 µg/mL and 400 µg/mL | – | MBC [1, 9]: 800 µg/mL (≈ 8.15 mM)
C=CC/C=C\C/C=C\CCCCCCCc1cccc(O)c1C(=O)O [Anacardic Acid (15:3)] | – | – | 6.25 µg/mL (≈ 0.0182 mM) | – | – | – | –
CCCCCCCCCCCCO [Dodecanol, n-dodecanol] | – | – | – | – | – | 80 µg/mL (≈ 0.429 mM) | –
c1ccc2[nH]ccc2c1 [Indole, indole] | – | – | – | – | – | – | MBC ([1]; Staphylococcus aureus, ATCC 33591 / MRSA): 800 µg/mL (≈ 6.83 mM); MBC ([7]; Candida albicans, ATCC10231): 800 µg/mL (≈ 6.83 mM); MBC ([2]; Pseudomonas aeruginosa, ATCC 10145 / ATCC 10536): 800 µg/mL (≈ 6.83 mM); MBC ([3]; Escherichia coli, ATCC10536): 800 µg/mL (≈ 6.83 mM); MIC ([4]; Staphylococcus aureus, ATCC 33591 / MRSA, 48 h): 800 µg/mL (≈ 6.83 mM); MIC ([8]; Candida albicans, ATCC10231, 48 h): 400 µg/mL (≈ 3.41 mM); MIC ([5]; Pseudomonas aeruginosa, ATCC 10145 / ATCC 10536, 48 h): 400 µg/mL (≈ 3.41 mM); MIC ([6]; Escherichia coli, ATCC10536, 48 h): 800 µg/mL (≈ 6.83 mM)
COc1cccc(OC)c1C(=O)N[C@@H]1C(=O)N2[C@@H]1SC(C)(C)[C@@H]2C(=O)O [Methicillin, methicillin, reference compound] | – | – | – | – | – | 800 µg/mL (≈ 2.1 mM) | –
CCCCCCCCCCCCCO [Tridecanol, n-tridecanol] | – | – | – | – | – | 50 µg/mL (≈ 0.25 mM) | –
CCCCCCCCCCCO [Undecanol, n-undecanol] | – | – | – | – | – | 50 µg/mL (≈ 0.29 mM) | –
Anacardic Acid | – | – | 6.25 µg/mL | – | – | – | –
polymyxin B [reference compound] | 6.25 µg/mL | 3.13 µg/mL | 800 µg/mL | 6.25 µg/mL | 3.13 µg/mL | – | MBC [1, 9]: 800 µg/mL; MBC [7, 16]: 1600 µg/mL; MIC [8, 17]: 800 µg/mL
polymyxin E [reference compound] | 12.5 µg/mL | 6.25 µg/mL | – | 6.25 µg/mL | 3.13 µg/mL | – | MBC [7, 16]: 1600 µg/mL; MIC [8, 17]: 1600 µg/mL
